What was measured:
[1] = target: T1, HiBit-KRAS^G12C (Homo sapiens, UniProt P01116, G12C); assay: HiBit degradation assay in SW1573 HiBit-KRas^G12C cells; assay type: cell-based; parameters: expressed in transfected cells; host or cells: SW1573 (clone E6), modified pcDNA3.1 vector, TK promoter; settings: 24 hours; for Dmax: SW1573, SW1573 HiBit-KRas^G12C
Outline: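 HiBit-KRAS G12C degradation was measured after a 24 h compound exposure (titrated 10 μM–20 nM) in engineered SW1573 cells. Lytic HiBit luminescence, expressed relative to DMSO controls, yielded DC50 and Dmax from 4-parameter fits. Concentrations causing ≥50% loss in alamar blue viability were omitted as cytotoxic.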

[2] = target: T1, HiBit-KRAS^G12C; assay: HiBit degradation assay in MiaPaCa-2 HiBit-KRas^G12C cells; assay type: cell-based; settings: 24 hours; for Dmax: MIA PaCa-2, MiaPaCa-2 HiBit-KRas^G12C cells
Outline: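 DC50 and Dmax come from 4-parameter fits of DMSO-normalized HiBit luminescence after 24 hours' exposure at 37° C to 10 μM–20 nM compound in 0.1% or 0.5% DMSO. Cells: MiaPaCa-2 carrying one endogenously HiBit-tagged KRAS^G12C allele; concentrations causing ≥50% […] viability loss (alamar blue) excluded.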

[3] = 0.1% DMSO, read-out: KRas^G12C-HiBit (SW1573; 0.1% DMSO) Dmax**
[4] = SW1573 HiBit-KRas^G12C, 0.1% DMSO, read-out: KRas^G12C-HIBit (SW1573; 0.1% DMSO) DC50*
[5] = read-out: KRas^G12C-HiBiT (SW1573; 0.5% DMSO) IC50***, SW1573 HiBit-KRas^G12C, 0.5% DMSO
[6] = read-out: KRas^G12C-HiBiT (MiaPaCa; 0.5% DMSO) IC50, MiaPaCa-2 HiBit-KRas^G12C cells, 0.5% DMSO
[7] = 0.5% DMSO, read-out: KRas^G12C-HiBiT (SW1573; 0.5% DMSO) Dmax**
[8] = 0.5% DMSO, maximum degradation, read-out: KRas^G12C-HiBiT (MiaPaCa; 0.5% DMSO) DMax

T1 sequence (P01116 1-186 isoform P01116-2 G12C limits assumed): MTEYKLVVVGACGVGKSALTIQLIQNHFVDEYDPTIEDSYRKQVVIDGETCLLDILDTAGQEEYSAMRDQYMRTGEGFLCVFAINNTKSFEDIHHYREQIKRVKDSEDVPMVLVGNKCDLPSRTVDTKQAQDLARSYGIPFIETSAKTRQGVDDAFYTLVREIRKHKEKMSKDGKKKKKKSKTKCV

Dmax [1, 3] [%]	DC50 [1, 4] [nM]	DC50 ([2]; read-out: KRas^G12C-HiBiT (MiaPaCa; 0.1% DMSO) IC50, MiaPaCa-2 HiBit-KRas^G12C cells, 0.1% DMSO) [nM]	DC50 [1, 5] [nM]	DC50 [2, 6] [nM]	Dmax [1, 7] [%]	Dmax [2, 8] [%]	KRas^G12C-HiBiT (SW1573; 0.5% DMSO) Dmax** ([1]; SW1573 HiBit-KRas^G12C, 0.5% DMSO)	KRas^G12C-HiBiT (MiaPaCa; 0.5% DMSO) DMax ([2]; MiaPaCa-2 HiBit-KRas^G12C cells, 0.5% DMSO, maximum degradation)	Dmax ([2]; 0.1% DMSO, maximum degradation, read-out: KRas^G12C-HiBiT (MiaPaCa; 0.1% DMSO) DMax) [%]	SMILES
< 35	100 to 1000	> 1000	–	–	–	–	–	–	–	C=CC(=O)N1CCN(c2nc(O[C@H](C)CN3CCC(C(=O)N[C@H](C(=O)N4C[C@H](O)C[C@H]4C(=O)N[C@@H](C)c4ccc(-c5scnc5C)cc4)C(C)(C)C)CC3)nc3c(F)c(-c4cc(O)cc5ccccc45)c(Cl)cc23)CC1 [Compound 34, 1-[(2R)-2-{[6-chloro-8-fluoro-7-(3-hydroxynaphthalen-1-yl)-4-[4-(prop-2-enoyl)piperazin-1-yl]quinazolin-2-yl]oxy}propyl]-N-[(2S)-1-[(2S,4R)-4-hydroxy-2-{[(1S)-1-[4-(4-methyl-1,3-thiazol-5-yl)phenyl]ethyl]carbamoyl}pyrrolidin-1-yl]-3,3-dimethyl-1-oxobutan-2-yl]piperidine-4-carboxamide]
–	–	–	100 to 1000	100 to 1000	> 70	35 to 70	–	–	–	C=CC(=O)N1CCN(c2nc(O[C@H](C)CN3CCC(COCC(=O)N[C@H](C(=O)N4C[C@H](O)C[C@H]4C(=O)N[C@@H](C)c4ccc(-c5scnc5C)cc4)C(C)(C)C)CC3)nc3c(F)c(-c4cc(O)cc5ccccc45)c(Cl)cc23)C[C@@H]1CC#N [Compound 152, (2S,4R)-1-[(2S)-2-[2-({1-[(2R)-2-({6-chloro-4-[(3S)-3-(cyanomethyl)-4-(prop-2-enoyl)piperazin-1-yl]-8-fluoro-7-(3-hydroxynaphthalen-1-yl)quinazolin-2-yl}oxy)propyl]piperidin-4-yl}methoxy)acetamido]-3,3-dimethylbutanoyl]-4-hydroxy-N-[(1S)-1-[4-(4-methyl-1,3-thiazol-5-yl)phenyl]ethyl]pyrrolidine-2-carboxamide]
35 to 70	100 to 1000	–	–	–	35 to 70	35 to 70	–	–	35 to 70	C=CC(=O)N1CCN(c2nc(O[C@H](C)CN3CCC(OCCOCC(=O)N[C@H](C(=O)N4C[C@H](O)C[C@H]4C(=O)N[C@@H](C)c4ccc(-c5scnc5C)cc4)C(C)(C)C)CC3)nc3c(F)c(-c4cc(O)cc5ccccc45)c(Cl)cc23)CC1 (atropisomer, axis not shown) [Compound 86, (2S,4R)-1-[(2S)-2-{2-[2-({1-[(2R)-2-{[6-chloro-8-fluoro-7-(3-hydroxynaphthalen-1-yl)-4-[4-(prop-2-enoyl)piperazin-1-yl]quinazolin-2-yl]oxy}propyl]piperidin-4-yl}oxy)ethoxy]acetamido}-3,3-dimethylbutanoyl]-4-hydroxy-N-[(1S)-1-[4-(4-methyl-1,3-thiazol-5-yl)phenyl]ethyl]pyrrolidine-2-carboxamide]

The next lines start with the compound.

SMILES	Dmax [1, 3] [%]	DC50 [1, 4] [nM]	DC50 ([2]; read-out: KRas^G12C-HiBiT (MiaPaCa; 0.1% DMSO) IC50, MiaPaCa-2 HiBit-KRas^G12C cells, 0.1% DMSO) [nM]	DC50 [1, 5] [nM]	DC50 [2, 6] [nM]	Dmax [1, 7] [%]	Dmax [2, 8] [%]	KRas^G12C-HiBiT (SW1573; 0.5% DMSO) Dmax** ([1]; SW1573 HiBit-KRas^G12C, 0.5% DMSO)	KRas^G12C-HiBiT (MiaPaCa; 0.5% DMSO) DMax ([2]; MiaPaCa-2 HiBit-KRas^G12C cells, 0.5% DMSO, maximum degradation)	Dmax ([2]; 0.1% DMSO, maximum degradation, read-out: KRas^G12C-HiBiT (MiaPaCa; 0.1% DMSO) DMax) [%]
C=C(F)C(=O)N1CCN(c2nc(OCCN3CCC(F)(COc4cc([C@@H](C(=O)N5C[C@H](O)C[C@H]5C(=O)N[C@@H](C)c5ccc(-c6scnc6C)cc5)C(C)C)on4)CC3)nc3c(F)c(-c4cc(O)cc5ccccc45)c(Cl)cc23)C[C@@H]1CC#N (atropisomer, axis not shown) [Compound 122, (2S,4R)-1-[(2S)-2-[3-({1-[2-({6-chloro-4-[(3S)-3-(cyanomethyl)-4-(2-fluoroprop-2-enoyl)piperazin-1-yl]-8-fluoro-7-(3-hydroxynaphthalen-1-yl)quinazolin-2-yl}oxy)ethyl]-4-fluoropiperidin-4-yl}methoxy)-1,2-oxazol-5-yl]-3-methylbutanoyl]-4-hydroxy-N-[(1S)-1-[4-(4-methyl-1,3-thiazol-5-yl)phenyl]ethyl]pyrrolidine-2-carboxamide]	–	–	–	> 1000	> 1000	–	–	–	–	–
C=CC(=O)N1CCN(c2nc(OCCN3CCC(COCC(=O)N[C@H](C(=O)N4C[C@H](O)C[C@H]4C(=O)N[C@@H](C)c4ccc(-c5scnc5C)cc4)C(C)(C)C)CC3)nc3c(F)c(-c4cc(O)cc5ccccc45)c(Cl)cc23)[C@@H](C)C1 [Compound 119, (2S,4R)-1-[(2S)-2-(2-{[1-(2-{[6-chloro-8-fluoro-7-(3-hydroxynaphthalen-1-yl)-4-[(2S)-2-methyl-4-(prop-2-enoyl)piperazin-1-yl]quinazolin-2-yl]oxy}ethyl)piperidin-4-yl]methoxy}acetamido)-3,3-dimethylbutanoyl]-4-hydroxy-N-[(1S)-1-[4-(4-methyl-1,3-thiazol-5-yl)phenyl]ethyl]pyrrolidine-2-carboxamide]	–	–	–	100 to 1000	100 to 1000	> 70	> 70	–	–	–
C=CC(=O)N1CCN(c2nc(OCCN3CCC(COc4cc([C@H](C(=O)N5C[C@H](O)C[C@H]5C(=O)N[C@@H](C)c5ccc(-c6scnc6C)cc5)C(C)C)on4)CC3)nc3c(F)c(-c4cc(O)cc5ccccc45)c(Cl)cc23)C[C@@H]1CC#N [Compound 169, (2S,4R)-1-[(2R)-2-[3-({1-[2-({6-chloro-4-[(3S)-3-(cyanomethyl)-4-(prop-2-enoyl)piperazin-1-yl]-8-fluoro-7-(3-hydroxynaphthalen-1-yl)quinazolin-2-yl}oxy)ethyl]piperidin-4-yl}methoxy)-1,2-oxazol-5-yl]-3-methylbutanoyl]-4-hydroxy-N-[(1S)-1-[4-(4-methyl-1,3-thiazol-5-yl)phenyl]ethyl]pyrrolidine-2-carboxamide]	–	–	–	< 100	100 to 1000	–	–	A (A ≥ 70)	A (A ≥ 70)	–
C=CC(=O)N1CCN(c2nc(O[C@H]3CCC[C@@H]3N3CCC(COCC(=O)N[C@H](C(=O)N4C[C@H](O)C[C@H]4C(=O)N[C@@H](C)c4ccc(-c5scnc5C)cc4)C(C)(C)C)CC3)nc3c(F)c(-c4cc(O)cc5ccccc45)c(Cl)cc23)C[C@@H]1CC#N [Compound 127, (2S,4R)-1-[(2S)-2-[2-({1-[(1S,2S)-2-({6-chloro-4-[(3S)-3-(cyanomethyl)-4-(prop-2-enoyl)piperazin-1-yl]-8-fluoro-7-(3-hydroxynaphthalen-1-yl)quinazolin-2-yl}oxy)cyclopentyl]piperidin-4-yl}methoxy)acetamido]-3,3-dimethylbutanoyl]-4-hydroxy-N-[(1S)-1-[4-(4-methyl-1,3-thiazol-5-yl)phenyl]ethyl]pyrrolidine-2-carboxamide]	–	–	–	100 to 1000	100 to 1000	35 to 70	35 to 70	–	–	–
C=CC(=O)N1CCN(c2nc(OCCN3CCC(COCC(=O)N[C@H](C(=O)N4C[C@H](O)C[C@H]4C(=O)N[C@@H](C)c4ccc(-c5scnc5C)cc4)C(C)(C)C)CC3)nc3c(F)c(-c4nc(NC)cc5ccccc45)c(Cl)cc23)C[C@@H]1CC#N [Compound 99, (2S,4R)-1-[(2S)-2-[2-({1-[2-({6-chloro-4-[(3S)-3-(cyanomethyl)-4-(prop-2-enoyl)piperazin-1-yl]-8-fluoro-7-[3-(methylamino)isoquinolin-1-yl]quinazolin-2-yl}oxy)ethyl]piperidin-4-yl}methoxy)acetamido]-3,3-dimethylbutanoyl]-4-hydroxy-N-[(1S)-1-[4-(4-methyl-1,3-thiazol-5-yl)phenyl]ethyl]pyrrolidine-2-carboxamide]	–	–	–	> 1000	> 1000	> 70	> 70	–	–	–
C=CC(=O)N1CCN(c2nc(OCCN3CCC(C)(COc4cc([C@H](C(=O)N5C[C@H](O)C[C@H]5C(=O)N[C@@H](C)c5ccc(-c6scnc6C)cc5)C(C)C)on4)CC3)nc3c(F)c(-c4cc(O)cc5ccccc45)c(Cl)cc23)C[C@@H]1CC#N [Compound 131, (2S,4R)-1-[(2R)-2-[3-({1-[2-({6-chloro-4-[(3S)-3-(cyanomethyl)-4-(prop-2-enoyl)piperazin-1-yl]-8-fluoro-7-(3-hydroxynaphthalen-1-yl)quinazolin-2-yl}oxy)ethyl]-4-methylpiperidin-4-yl}methoxy)-1,2-oxazol-5-yl]-3-methylbutanoyl]-4-hydroxy-N-[(1S)-1-[4-(4-methyl-1,3-thiazol-5-yl)phenyl]ethyl]pyrrolidine-2-carboxamide]	–	–	–	< 100	100 to 1000	> 70	> 70	–	–	–

Reference: patent publication US20220370416A1, “COMPOUNDS AND METHODS FOR TARGETED DEGRADATION OF KRAS” (Arvinas Operations, Inc., priority 2020, published 2022)
